The values that follow come from patent US20180360710A1, “Sodium Zinc Alginate Structurant And Methods For Making And Using the Same” (Colgate-Palmolive Company, priority 2015, published 2018).

For the compound `[Cl-].[Cl-].[Zn+2]` [ZnCl2, zinc chloride], the “Solubility (g/100 g H2O, 25° C.)” value (25° C.) worked out at 408 g/100 g H2O. Also, under “at use level in formula”, the “Calculated Soluble Zinc” value was 0.72% and the “Total Zinc Conc.” value was determined as 0.72%.
With `[O]=[Zn]` [ZnO, zinc oxide], for the setting “at use level in formula”, the “Total Zinc Conc.” value came out at 0.80%.
